# Source: PMC6370209, “Rapid and sensitive detection of NADPH via mBFP-mediated enhancement of its fluorescence” (PLoS ONE, 2019)
# Legend:
# [1] = target: T1, mBFP (metagenome-derived blue fluorescent protein) (uncultured bacterium, UniProt D6NKF4); assay: fluorescence enhancement of NADPH upon mBFP addition (ex […] nm, em […] nm); format: binding; conditions: […] Tris-HCl pH […] °C
# T1 construct: full length, 248 amino acids, N-terminal 6-His tag kept (pQE30), expressed in E. coli XL1-Blue
# T1 sequence (D6NKF4 1-248): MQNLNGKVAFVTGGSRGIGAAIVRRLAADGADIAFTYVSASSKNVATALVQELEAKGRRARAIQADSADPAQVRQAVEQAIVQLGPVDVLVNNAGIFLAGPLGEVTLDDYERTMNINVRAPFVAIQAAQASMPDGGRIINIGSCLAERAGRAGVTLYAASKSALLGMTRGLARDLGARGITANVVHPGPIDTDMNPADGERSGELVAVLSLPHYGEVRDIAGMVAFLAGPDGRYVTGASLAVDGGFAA
# [2] = target: T1, mBFP (metagenome-derived blue fluorescent protein); assay: competition with NADPH, attenuation of mBFP-NADPH fluorescence; format: binding; conditions: […] Tris-HCl pH […] °C; competitive with NADPH; excess NADP+
# NAD(H) kinase (MfnK) = target: T2, NAD(H) kinase (MfnK) (Micrococcus luteus, UniProt Q8VUL9); assay: NADPH formation detected by mBFP fluorescence; format: biochemical; conditions: 50 mM Tris-HCl pH 7.5, 0.1 mM MgCl2, 0.5 mM ATP, 0.5 mM NADH
# T2 construct: full-length gene from genomic DNA, C-terminal His tag (pET-22b(+)), expressed in E. coli BL21(DE3), purified
# T2 sequence (Q8VUL9 1-362): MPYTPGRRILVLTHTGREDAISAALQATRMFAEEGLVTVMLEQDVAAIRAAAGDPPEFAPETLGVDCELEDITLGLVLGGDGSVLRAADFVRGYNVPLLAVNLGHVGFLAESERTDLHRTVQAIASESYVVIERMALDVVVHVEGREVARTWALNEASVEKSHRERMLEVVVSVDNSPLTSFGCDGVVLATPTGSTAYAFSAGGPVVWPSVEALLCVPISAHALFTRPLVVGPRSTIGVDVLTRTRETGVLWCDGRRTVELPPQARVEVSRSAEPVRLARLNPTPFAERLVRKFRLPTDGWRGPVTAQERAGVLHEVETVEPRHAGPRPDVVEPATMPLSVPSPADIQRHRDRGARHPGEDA
smiles,measurement,setting,value
NC(=O)C1=CN([C@@H]2O[C@H](COP(=O)(O)OP(=O)(O)OC[C@H]3O[C@@H](n4cnc5c(N)ncnc54)[C@H](OP(=O)(O)O)[C@@H]3O)[C@@H](O)[C@H]2O)C=CC1 [NADPH],"fluorescence enhancement of NADPH upon mBFP addition (ex 350 nm, em 450 nm)",[1],An immediate enhancement of fluorescence was detected when the purified mBFP was added
NC(=O)c1ccc[n+]([C@@H]2O[C@H](COP(=O)(O)OP(=O)(O)OC[C@H]3O[C@@H](n4cnc5c(N)ncnc54)[C@H](OP(=O)(O)O)[C@@H]3O)[C@@H](O)[C@H]2O)c1 [NADP^+],"competition with NADPH, attenuation of mBFP-NADPH fluorescence",[2],excess NADP^+ resulted in competition for mBFP binding and attenuated the NADPH fluorescence enhancement
NC(=O)C1=CN([C@@H]2O[C@H](COP(=O)(O)OP(=O)(O)OC[C@H]3O[C@@H](n4cnc5c(N)ncnc54)[C@H](O)[C@@H]3O)[C@@H](O)[C@H]2O)C=CC1 [NADH],NADPH formation detected by mBFP fluorescence,NAD(H) kinase (MfnK),enzymatic conversion of NADH to NADPH by MfnK as a function of the NADH amount
